Values joined by “and” are separate entries in the source; they are usually repeats but may differ in a detail not shown here. Identical values can stand only once. Inconclusive results and toxic doses are left out.
Tested on: P388 leukemia ip, CD2F1 mice, survival T/C
Assay: NCI In Vivo Anticancer Drug Screen. Data for tumor model P388 Leukemia (intraperitoneal) in CD2F1 (CDF1) mice
Details: endpoint: median survival time, higher = longer survival
In short: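 Mice carrying the transplanted tumor received test compound or vehicle. Survival was recorded in each group, and the value is the treated-group measurement divided by that of the vehicle-treated control group.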

[1] = dose: 50.0 mg/kg/injection, schedule: Q01DX005 (ip), vehicle: Klucel (hydroxypropylcellulose) (HPC)
[2] = dose: 100.0 mg/kg/injection, schedule: Q01DX005 (ip), vehicle: Klucel (hydroxypropylcellulose) (HPC)
[3] = dose: 200.0 mg/kg/injection, schedule: Q01DX005 (ip), vehicle: Klucel (hydroxypropylcellulose) (HPC)
[4] = dose: 50.0 mg/kg/injection, schedule: Q01DX009 (ip), vehicle: Klucel (hydroxypropylcellulose) (HPC)
[5] = dose: 100.0 mg/kg/injection, schedule: Q01DX009 (ip), vehicle: Klucel (hydroxypropylcellulose) (HPC)
[6] = dose: 6.25 mg/kg/injection, schedule: Q01DX009 (ip), vehicle: Klucel (hydroxypropylcellulose) (HPC)
[7] = dose: 12.5 mg/kg/injection, schedule: Q01DX009 (ip), vehicle: Klucel (hydroxypropylcellulose) (HPC)

`NC(C/[N+]([O-])=N/O)C(=O)O` (stereo unspecified) was tested, and the T/C (dose: 8.78 mg/kg/injection, schedule: Q01DX010 (ip), vehicle: alkali diluted with saline) was 119 % of control, the T/C (dose: 9.38 mg/kg/injection, schedule: Q01DX009 (ip), vehicle: alkali diluted with saline) was 120 % of control and the T/C (dose: 13.2 mg/kg/injection, schedule: Q01DX010 (ip), vehicle: alkali diluted with saline) was 124 % of control. For the same molecule, the T/C (dose: 15.6 mg/kg/injection, schedule: Q01DX005 (ip), vehicle: saline with Tween-80) was 124 % of control, the T/C (dose: 15.6 mg/kg/injection, schedule: Q01DX005 (iv), vehicle: saline with Tween-80) was 107 % of control and the T/C (dose: 27.0 mg/kg/injection, schedule: Q01DX009 (ip), vehicle: alkali diluted with saline) was 161 % of control. For the same molecule, the T/C (dose: 30.0 mg/kg/injection, schedule: Q01DX005 (ip), vehicle: alkali diluted with saline) was 161 % of control, the T/C (dose: 31.3 mg/kg/injection, schedule: Q01DX005 (iv), vehicle: saline with Tween-80) was 103 % of control and the T/C (dose: 37.5 mg/kg/injection, schedule: Q01DX009 (ip), vehicle: alkali diluted with saline) was 161 % of control and 162 % of control. For the same molecule, the T/C (dose: 40.0 mg/kg/injection, schedule: Q01DX005 (ip), vehicle: alkali diluted with saline) was 150 % of control, the T/C (dose: 40.0 mg/kg/injection, schedule: Q01DX009 (ip), vehicle: alkali diluted with saline) was 165 % of control and the T/C (dose: 45.0 mg/kg/injection, schedule: Q01DX009 (ip), vehicle: alkali diluted with saline) was 152 % of control and 166 % of control. For the same molecule, the T/C (dose: 60.0 mg/kg/injection, schedule: Q01DX005 (ip), vehicle: alkali diluted with saline) was 185 % of control, the T/C (dose: 62.5 mg/kg/injection, schedule: Q01DX005 (iv), vehicle: saline with Tween-80) was 111 % of control and the T/C (dose: 62.5 mg/kg/injection, schedule: Q01DX009 (ip), vehicle: saline) was 150 % of control. The T/C (dose: 62.5 mg/kg/injection, schedule: Q01DX009 (ip), vehicle: water) was 163 % of control, the T/C (dose: 66.7 mg/kg/injection, schedule: Q01DX009 (ip), vehicle: alkali diluted with saline) was 107 % of control and the T/C (dose: 75.0 mg/kg/injection, schedule: Q01DX009 (ip), vehicle: alkali diluted with water) was 166 % of control. For the same molecule, the T/C (dose: 80.0 mg/kg/injection, schedule: Q01DX005 (ip), vehicle: alkali diluted with saline) was 182 % of control, the T/C (dose: 80.0 mg/kg/injection, schedule: Q01DX009 (ip), vehicle: alkali diluted with saline) was 99 % of control and the T/C (dose: 100.0 mg/kg/injection, schedule: Q01DX010 (ip), vehicle: alkali diluted with saline) was 92 % of control. For the same molecule, the T/C (dose: 108.0 mg/kg/injection, schedule: Q04DX003 (ip), vehicle: alkali diluted with saline) was 161 % of control, the T/C (dose: 112.5 mg/kg/injection, schedule: Q04DX003 (ip), vehicle: alkali diluted with saline) was 150 % of control and the T/C (dose: 120.0 mg/kg/injection, schedule: Q01DX005 (ip), vehicle: alkali diluted with saline) was 70 % of control. For the same molecule, the T/C (dose: 125.0 mg/kg/injection, schedule: Q01DX005 (ip), vehicle: saline with Tween-80) was 157 % of control, the T/C (dose: 125.0 mg/kg/injection, schedule: Q01DX005 (iv), vehicle: saline with Tween-80) was 107 % of control and the T/C (dose: 125.0 mg/kg/injection, schedule: Q01DX009 (ip), vehicle: alkali diluted with saline) was 66 % of control and 86 % of control. The T/C (dose: 125.0 mg/kg/injection, schedule: Q01DX009 (ip), vehicle: saline) was 154 % of control, the T/C (dose: 150.0 mg/kg/injection, schedule: Q01DX009 (ip), vehicle: alkali diluted with water) was 96 % of control and the T/C (dose: 180.0 mg/kg/injection, schedule: Q04DX003 (ip), vehicle: alkali diluted with saline) was 166 % of control. For the same molecule, the T/C (dose: 200.0 mg/kg/injection, schedule: Q04DX003 (ip), vehicle: alkali diluted with water) was 155 % of control, the T/C (dose: 225.0 mg/kg/injection, schedule: Q04DX003 (ip), vehicle: alkali diluted with saline) was 178 % of control and the T/C (dose: 300.0 mg/kg/injection, schedule: Q04DX003 (ip), vehicle: alkali diluted with saline) was 175 % of control. The T/C (dose: 450.0 mg/kg/injection, schedule: Q04DX003 (ip), vehicle: alkali diluted with saline) was 115 % of control and the T/C (dose: 500.0 mg/kg/injection, schedule: Q04DX003 (ip), vehicle: alkali diluted with saline) was 198 % of control.
With `COc1ccc(C)cc1N=NC1C(=O)N(C(=O)CC(=O)Nc2ccccc2Cl)N=C1C` (stereo unspecified) the T/C [1] was 96 % of control and the T/C [2] was 95 % of control.
With `CCCCN(Cc1c(O)ccc2ccccc12)Cc1c(O)ccc2ccccc12` the T/C [1] was 95 % of control, the T/C [2] was 97 % of control and the T/C [3] was 94 % of control.
With `N#Cc1c(F)cccc1N(Cc1cccnc1)C(=S)Nc1ccc(Cl)c(Cl)c1` the T/C [1] was 110 % of control, the T/C [2] was 110 % of control and the T/C [3] was 105 % of control.
`O=C(CC(=NCC(O)CN=C(CC(=O)c1ccccc1)c1ccccc1)c1ccccc1)c1ccccc1` (stereo unspecified) was tested, and the T/C (dose: 100.0 mg/kg/injection, schedule: Q04DX002 (ip), vehicle: saline with Tween-80) was 98 % of control, the T/C (dose: 200.0 mg/kg/injection, schedule: Q04DX002 (ip), vehicle: saline with Tween-80) was 98 % of control and the T/C (dose: 400.0 mg/kg/injection, schedule: Q04DX002 (ip), vehicle: saline with Tween-80) was 91 % of control.
For `CCOC(=O)/C(=C/Nc1ccc(O)cc1)NC(=O)c1ccccc1`, the T/C [4] was 103 % of control and 104 % of control, the T/C [5] was 94 % of control and 97 % of control and the T/C (dose: 200.0 mg/kg/injection, schedule: Q01DX009 (ip), vehicle: Klucel (hydroxypropylcellulose) (HPC)) was 118 % of control and 87 % of control. The T/C (dose: 400.0 mg/kg/injection, schedule: Q01DX009 (ip), vehicle: Klucel (hydroxypropylcellulose) (HPC)) was 89 % of control.
With `CNC(=O)OCc1c(COC(=O)NC)c(C(F)(F)F)n2c1CCC2` the T/C [4] was 117 % of control and the T/C [5] was 116 % of control.
In the case of `O=c1[nH]c(=S)cnn1C1OC(CO)C(O)C1O` (stereo unspecified), the T/C (dose: 50.0 mg/kg/injection, schedule: Q01DX009 (ip), vehicle: saline) is reported as 106 % of control, the T/C (dose: 100.0 mg/kg/injection, schedule: Q01DX009 (ip), vehicle: saline) is reported as 94 % of control and the T/C (dose: 200.0 mg/kg/injection, schedule: Q01DX009 (ip), vehicle: saline) is reported as 101 % of control.
`O=C(NN(Cn1c(=S)sc2ccccc21)Cn1c(=S)sc2ccccc21)c1ccncc1` was tested, and the T/C (dose: 3.12 mg/kg/injection, schedule: Q01DX009 (ip), vehicle: Klucel (hydroxypropylcellulose) (HPC)) was 105 % of control and 98 % of control, the T/C [6] was 93 % of control and 94 % of control and the T/C [7] was 88 % of control and 92 % of control.
In the case of `Clc1ccc(CSc2ncnc3nc[nH]c23)cc1`, the T/C (dose: 100.0 mg/kg/injection, schedule: Q04DX003 (ip), vehicle: saline with Tween-80) is reported as 109 % of control, the T/C (dose: 200.0 mg/kg/injection, schedule: Q04DX003 (ip), vehicle: saline with Tween-80) is reported as 104 % of control and the T/C (dose: 400.0 mg/kg/injection, schedule: Q04DX003 (ip), vehicle: saline with Tween-80) is reported as 109 % of control.
With `C=C(c1ccc2nc(NC(=O)OC)[nH]c2c1)c1cccs1` the T/C (dose: 25.0 mg/kg/injection, schedule: Q01DX005 (ip), vehicle: saline with Tween-80) was 108 % of control, the T/C (dose: 50.0 mg/kg/injection, schedule: Q01DX005 (ip), vehicle: saline with Tween-80) was 99 % of control and the T/C (dose: 100.0 mg/kg/injection, schedule: Q01DX005 (ip), vehicle: saline with Tween-80) was 98 % of control. The T/C (dose: 200.0 mg/kg/injection, schedule: Q01DX005 (ip), vehicle: saline with Tween-80) was 100 % of control.
For `COC(=O)c1ccccc1N=C/C(Cl)=C(/Cl)C(=O)O`, the T/C [6] was 100 % of control and 110 % of control and 96 % of control, the T/C [7] was 100 % of control and 111 % of control and 117 % of control and the T/C (dose: 25.0 mg/kg/injection, schedule: Q01DX009 (ip), vehicle: Klucel (hydroxypropylcellulose) (HPC)) was 113 % of control and 118 % of control and 121 % of control. The T/C [4] was 113 % of control and 116 % of control and 119 % of control.
In the case of `O=[N+]([O-])c1cccn2nc(C3OC(CO)C(O)C3O)nc12` (stereo unspecified), the T/C (dose: 6.25 mg/kg/injection, schedule: Q01DX009 (ip), vehicle: water) is reported as 109 % of control, the T/C (dose: 12.5 mg/kg/injection, schedule: Q01DX009 (ip), vehicle: water) is reported as 104 % of control and the T/C (dose: 25.0 mg/kg/injection, schedule: Q01DX009 (ip), vehicle: water) is reported as 113 % of control. For the same molecule, the T/C (dose: 50.0 mg/kg/injection, schedule: Q01DX009 (ip), vehicle: water) was 98 % of control and the T/C (dose: 100.0 mg/kg/injection, schedule: Q01DX009 (ip), vehicle: water) was 109 % of control.
`CNCCNc1ncc([N+](=O)[O-])s1` was tested, and the T/C (dose: 25.0 mg/kg/injection, schedule: Q01DX001 (ip), vehicle: saline) was 115 % of control and 118 % of control and the T/C (dose: 50.0 mg/kg/injection, schedule: Q01DX001 (ip), vehicle: saline) was 122 % of control and 124 % of control.
`CC(C)=NNc1cc(N)nc2c1ncn2C1OC(CO)C(O)C1O` (stereo unspecified) was tested, and the T/C (dose: 12.5 mg/kg/injection, schedule: Q01DX005 (ip), vehicle: water) was 97 % of control, the T/C (dose: 25.0 mg/kg/injection, schedule: Q01DX005 (ip), vehicle: water) was 94 % of control and the T/C (dose: 50.0 mg/kg/injection, schedule: Q01DX005 (ip), vehicle: water) was 98 % of control. The T/C (dose: 100.0 mg/kg/injection, schedule: Q01DX005 (ip), vehicle: water) was 96 % of control and the T/C (dose: 200.0 mg/kg/injection, schedule: Q01DX005 (ip), vehicle: water) was 106 % of control.
